Experimental data published in US8163750B2, “Fluorene derivatives, compositions containing the same and use thereof as inhibitors of the protein chaperone HSP 90” (Sanofi-Aventis, priority 2006, dated 2012).

How the values were obtained:
Hsp82 = Hsp82 (Saccharomyces cerevisiae, UniProt P02829); experiment: Hsp82 ATPase activity, pyruvate kinase/lactate dehydrogenase enzymatic coupling system; type: biochemical; settings: PK/LDH coupled kinetic method, NADH absorbance 340 nm, 1 μM Hsp82, 250 μM ATP, 37° C.
Description: The formation of ADP due to the ATPase activity of Hsp82 was utilized for developing another method of evaluating the enzymatic activity of this enzyme by the application of an enzymatic coupling system involving pyruvate kinase (PK) and lactate dehydrogenase (LDH). In this spectrophotometric method of the kinetic type, PK catalyses the formation of ATP and pyruvate from phosphoenol-pyruvate (PEP) and ADP produced by HSP82. The pyruvate formed, a substrate of LDH, is then converted to lactate in the presence of NADH. In this case, the decrease in the concentration of NADH, measured from the decrease in absorbance at a wavelength of 340 nm, is proportional to the concentration of ADP produced by HSP82. The test products are incubated in a reaction volume of 100 μl of buffer composed of 100 mM Hepes-NaOH (pH 7.5), 5 mM MgCl2, 1 mM DTT, 150 mM KCl, 0.3 mM NADH, 2.5 mM PEP and 250 μM ATP. This mixture is preincubated at 37° C. for 30 min before adding 3.77 units of LDH and 3.77 units of PK. The reaction is initiated by adding the product to be evaluated, at various concentrations, and Hsp82, at a concentration of 1 μM. Measurement of the enzymatic activity of Hsp82 is then performed continuously in a microplate reader, at 37° C., at a wavelength of 340 nm. The initial rate of the reaction is found by measuring the gradient of the tangent at the origin of the curve that is recorded. The enzymatic activity is expressed in μM of ADP formed per minute. The effect of the various products tested is expressed as percentage inhibition of ATPase activity according to the following code: • A: IC50<1 μM • B: 1 μM<IC50<10 μM • C: 10 μM<IC50<100 μM

Chain of Hsp82 (P02829 whole entry): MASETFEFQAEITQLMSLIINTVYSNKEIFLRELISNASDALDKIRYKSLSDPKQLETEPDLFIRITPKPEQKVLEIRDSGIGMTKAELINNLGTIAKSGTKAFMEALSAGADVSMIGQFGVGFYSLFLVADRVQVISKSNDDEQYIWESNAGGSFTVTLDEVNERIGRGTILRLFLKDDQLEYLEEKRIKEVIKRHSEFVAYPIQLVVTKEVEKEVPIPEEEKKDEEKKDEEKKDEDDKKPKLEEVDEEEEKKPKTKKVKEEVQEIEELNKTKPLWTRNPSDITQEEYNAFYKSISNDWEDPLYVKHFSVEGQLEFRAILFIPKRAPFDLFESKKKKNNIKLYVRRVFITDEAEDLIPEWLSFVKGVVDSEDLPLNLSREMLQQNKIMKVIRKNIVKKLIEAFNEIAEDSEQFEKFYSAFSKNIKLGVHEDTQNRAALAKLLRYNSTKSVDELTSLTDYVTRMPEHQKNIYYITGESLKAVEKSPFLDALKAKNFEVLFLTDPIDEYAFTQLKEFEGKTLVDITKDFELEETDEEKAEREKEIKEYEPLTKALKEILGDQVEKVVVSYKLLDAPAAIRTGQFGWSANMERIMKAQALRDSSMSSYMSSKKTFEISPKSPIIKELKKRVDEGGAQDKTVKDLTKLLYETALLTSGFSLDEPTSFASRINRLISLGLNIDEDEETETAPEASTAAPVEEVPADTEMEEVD

| SMILES | IC50 (Hsp82) [nM] | melting point [°C] |
| --- | --- | --- |
| Nc1ncc(Cl)c(C(=O)NC2c3ccccc3-c3c(-c4ncc[nH]4)cccc32)n1 (racemic) [Example 1, [4-(1H-imidazol-2-yl)-9H-fluoren-9(R,S)-yl]-amide of 2-amino-5-chloro-pyrimidine-4-carboxylic acid] | 1000 to 10000 |  |
| O=C(NC1c2ccccc2-c2c(-c3cc4ccccc4[nH]3)cccc21)c1ccnc2[nH]ccc12 (racemic) [Example 5, [4-(1H-indol-2-yl)-9H-fluoren-9-(R,S)-yl]-amide of 1H-pyrrolo[2,3-b]pyridine-4-carboxylic acid] | < 1000 |  |
| O=C(NC1c2ccccc2-c2c(-c3ccc4ccccc4n3)cccc21)c1ccnc2[nH]ccc12 (racemic) [Example 8, [4-(quinolin-2-yl)-9H-fluoren-9-(R,S)-yl]-amide of 1H-pyrrolo[2,3-b]pyridine-4-carboxylic acid] | 1000 to 10000 | 260 |
| O=C(NC1c2ccccc2-c2c(-c3cnc4ccccc4c3)cccc21)c1ncnc2[nH]ccc12 (racemic) [Example 11, [4-(quinolin-3-yl)-9H-fluoren-9(R,S)-yl]-amide of 7H-pyrrolo[2,3-c]pyrimidine-4-carboxylic acid] | < 1000 |  |
| O=C(NC1c2ccccc2-c2c(-c3cnc4ccccc4c3)cccc21)c1c(Br)cnc2[nH]cnc12 (racemic) [Example 13, [4-(quinolin-3-yl)-9H-fluoren-9(R,S)-yl]-amide of 6-bromo-3H-imidazo[4,5-b]pyridine-7-carboxylic acid] | < 1000 |  |
| Nc1ncc(Cl)c(C(=O)NC2c3ccccc3-c3c(-c4cnc5ccccc5c4)cccc32)n1 (racemic) [Example 15, [4-(quinolin-3-yl)-9H-fluoren-9(R,S)-yl]-amide of 2-amino-5-chloro-pyrimidine-4-carboxylic acid] | < 1000 |  |
| O=C(NC1c2ccccc2-c2c(C(=O)n3ncc4ccccc43)cccc21)c1ccnc2[nH]ccc12 (racemic) [Example 16, [4-(indazole-1-carbonyl)-9H-fluoren-9(R,S)-yl]-amide of 1H-pyrrolo[2,3-b]pyridine-4-carboxylic acid] | 1000 to 10000 | 220 |
| O=C(NC1c2ccccc2-c2c(-c3cnc4ccccc4c3)cccc21)c1c(Br)cnc2[nH]cnc12 (single isomer, unassigned) [Example 20] | 10000 to 100000 |  |
| O=C(NC1c2ccccc2-c2c(-c3cnc4ccccc4c3)cccc21)c1c(Br)cnc2[nH]cnc12 (single isomer, unassigned) [Example 21] | < 1000 |  |

Second part, the compound after the results:

| IC50 (Hsp82) [nM] | melting point [°C] | SMILES |
| --- | --- | --- |
| 1000 to 10000 | > 260 | O=C(NC1c2ccccc2-c2c(-c3cc4ccccc4o3)cccc21)c1ccnc2[nH]ccc12 (racemic) [Example 2, [4-(benzofuran-2-yl)-9H-fluoren-9(R,S)-yl)]-amide of 1H-pyrrolo[2,3-b]pyridine-4-carboxylic acid] |
| 1000 to 10000 | > 260 | O=C(NC1c2ccccc2-c2c(-c3cnc4ccccc4c3)cccc21)c1ccnc2[nH]ccc12 (racemic) [Example 3, [4-(quinolin-3-yl)-9H-fluoren-9(R,S)-yl)]-amide of 1H-pyrrolo[2,3-b]pyridine-4-carboxylic acid] |
| 1000 to 10000 | > 260 | O=C(NC1c2ccccc2-c2c(-c3ccc(F)nc3)cccc21)c1ccnc2[nH]ccc12 (racemic) [Example 4, [4-(6-fluoro-pyridin-3-yl)-9H-fluoren-9-(R,S)-yl]-amide of 1H-pyrrolo[2,3-b]pyridine-4-carboxylic acid] |
| < 1000 | > 260 | O=C(NC1c2ccccc2-c2c(-c3nc4ccccc4o3)cccc21)c1ccnc2[nH]ccc12 (racemic) [Example 6, [4-(benzoxazol-2-yl)-9H-fluoren-9-(R,S)-yl]-amide of 1H-pyrrolo[2,3-b]pyridine-4-carboxylic acid] |
| < 1000 | > 260 | O=C(NC1c2ccccc2-c2c(-c3cncnc3)cccc21)c1ccnc2[nH]ccc12 (racemic) [Example 7, [4-(pyrimidin-5-yl)-9H-fluoren-9-(R,S)yl]-amide of 1H-pyrrolo[2,3-b]pyridine-4-carboxylic acid] |
| 1000 to 10000 |  | O=C(NC1c2ccccc2-c2c(-c3nc4ccccn4n3)cccc21)c1ccnc2[nH]ccc12 (racemic) [Example 9, (4-[1.2.4]triazolo[1,5-a]pyridin-2-yl-9H-fluoren-9(R,S)-yl)-amide of 1H-pyrrolo[2,3-b]pyridine-4-carboxylic acid] |
| 1000 to 10000 |  | O=C(NC1c2ccccc2-c2c(C3=Nc4ccccc4OC3)cccc21)c1ccnc2[nH]ccc12 (racemic) [Example 10, [4-(1,4-benzoxazin-2H-3-yl)-9H-fluoren-9(R,S)-yl]-amide of 1H-pyrrolo[2,3-b]pyridine-4-carboxylic acid] |
| 1000 to 10000 |  | O=C(NC1c2ccccc2-c2c(-c3cnc4ccccc4n3)cccc21)c1ccnc2[nH]ccc12 (racemic) [Example 12, [4-(quinoxalin-2-yl)-9H-fluoren-9(R,S)-yl]-amide of 1H-pyrrolo[2,3-b]pyridine-4-carboxylic acid] |
| 1000 to 10000 |  | O=C(NC1c2ccccc2-c2c(-c3ccc(N4CCOCC4)nc3)cccc21)c1ccnc2[nH]ccc12 (racemic) [Example 14, [4-(2-morpholino-pyridin-5-yl)-9H-fluoren-9(R,S)-yl]-amide of 1H-pyrrolo[2,3-b]pyridine-4-carboxylic acid] |
| < 1000 |  | O=C(NC1c2ccccc2-c2c(-c3cnc4[nH]ccc4c3)cccc21)c1ccnc2[nH]ccc12 (racemic) [Example 17, [4-(1H-pyrrolo[2,3-b]pyridin-5-yl)-9H-fluoren-9(R,S)-yl]-amide of 1H-pyrrolo[2,3-b]pyridine-4-carboxylic acid] |
| 1000 to 10000 |  | O=C(NC1c2ccccc2-c2c(-c3cnc4c(c3)CCCN4)cccc21)c1ccnc2[nH]ccc12 (racemic) [Example 18, [4-(5,6,7,8-tetrahydro-1,8-naphthyridin-3-yl)-9H-fluoren-9(R,S)-yl]-amide of 1H-pyrrolo[2,3-b]pyridine-4-carboxylic acid] |
| < 1000 | 270 | O=C(NC1c2ccccc2-c2c(-c3cn4ccccc4n3)cccc21)c1ccnc2[nH]ccc12 (racemic) [Example 19, 4-{imidazo[1,2-a]pyridin-2-yl}-9H-fluoren-9-(R,S)-yl-amide of 1H-pyrrolo[2,3-b]pyridine-4-carboxylic acid] |
